Data: PubChem BioAssay (NCI)
“And” between values parts separate entries of the source, which are not always exact repeats. Identical values can stand only once.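 These data come from cells grown in 96-well plates and exposed to compound for 48 hours at five concentrations. TGI: concentration producing complete growth inhibition.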

Assays:
Assay in all cases: NCI tumour cell line growth inhibition, 48 h
[1] = system: LXFL 529 NSCLC
[2] = system: M19-MEL melanoma
[3] = system: DMS 273 small cell lung
[4] = system: HOP-18 NSCLC
[5] = system: DLD-1 colon
[6] = system: P388 leukemia
[7] = system: P388/ADR leukemia
[8] = system: SN12K1 renal
[9] = system: RXF-631 renal

## CC(=O)O[C@]12CCCCCC1C1(O)C(O)CCC[C@H]12 (stereo not given in full)
[1]
  TGI: > 100 µM
[2]
  TGI: > 100 µM
[3]
  TGI: > 100 µM
[4]
  TGI: > 100 µM

## COCOc1ccc(Cn2c(=O)n(C)c(=O)c3c2ncn3C)cc1[N+](=O)[O-]
[1]
  TGI: > 100 µM
[5]
  TGI: > 100 µM
[2]
  TGI: > 100 µM
[3]
  TGI: > 100 µM

## O=C(NC(Cc1ccc(I)cc1)C(=O)O)c1ccc(I)cc1 (stereo not given)
[6]
  TGI: > 100 µM
[5]
  TGI: > 100 µM
[7]
  TGI: > 100 µM
[8]
  TGI: > 100 µM
[2]
  TGI: > 100 µM
[3]
  TGI: > 100 µM
[4]
  TGI: > 100 µM

## O=C1C=CC(=O)N1Nc1ccc([N+](=O)[O-])cc1[N+](=O)[O-]
[1]
  TGI: > 64.6 µM
[5]
  TGI: > 100 µM
[2]
  TGI: > 100 µM
[3]
  TGI: > 100 µM

## Cc1cn(C2OC(C)(CO)C(O)C2O)c(=O)[nH]c1=O (stereo not given)
[1]
  TGI: > 100 µM
[5]
  TGI: > 100 µM
[2]
  TGI: > 100 µM
[3]
  TGI: > 100 µM
[4]
  TGI: > 100 µM

## Cc1c(C(=O)CSc2nc3ccccc3c(=O)n2-c2ccccc2)c(=O)n(-c2ccccc2)n1C
[5]
  TGI: > 100 µM
[2]
  TGI: > 100 µM
[3]
  TGI: > 100 µM

## CC(C(=O)n1nnc2ccccc21)N(c1ccccc1)c1ccccc1 (stereo not given)
[1]
  TGI: > 100 µM
[5]
  TGI: > 100 µM
[2]
  TGI: > 100 µM
[3]
  TGI: > 100 µM

## CCOC(=O)/C=C(\C)c1ccc(C)cc1C
[1]
  TGI: 28.6 µM
[9]
  TGI: > 100 µM
[5]
  TGI: 31.5 µM
[3]
  TGI: > 100 µM
[4]
  TGI: > 100 µM

## C=CCNC(=S)/N=C/c1c(O)c2ccccc2oc1=O
[1]
  TGI: > 100 µM
[5]
  TGI: > 100 µM
[2]
  TGI: > 100 µM
[3]
  TGI: > 100 µM
[4]
  TGI: > 100 µM

## O=c1ccc2cc3ccc4cccc5ccc(c2o1)c3c45
[1]
  TGI: > 100 µM
[9]
  TGI: > 100 µM
[5]
  TGI: > 100 µM
[2]
  TGI: > 100 µM
[4]
  TGI: > 100 µM

## CC[C@H]1CN2CCc3cc(OC)c(OC)cc3[C@@H]2C[C@@H]1C[C@H]1NCCc2cc(OC)c(OC)cc21
[5]
  TGI: 0.591 µM and 0.408 µM
[2]
  TGI: 0.0824 µM and 0.147 µM
[3]
  TGI: 0.18 µM and 0.0463 µM
[4]
  TGI: 0.403 µM
